Consider three molecules from patent publication US20240287108A1, “nSMASE2 INHIBITOR PRODRUGS WITH ENHANCED ORAL AND BRAIN EXPOSURES” (The Johns Hopkins University, priority 2021, published 2024).

Data set [1] in a line: time-dependent oral pharmacokinetics in mice. Type of data set: in vivo, mouse. As to the method: As described earlier, we identified P1 and P18 as the most promising candidates for time dependent PK.
(§1) All PK studies in mice were conducted according to protocols approved by the Animal Care and Use Committee at Johns Hopkins University. Male CD-1 mice between 25 and 30 g were obtained from Harlan and maintained on a 12 h light-dark cycle with ad libitum access to food and water. […] All of the formulations were freshly prepared prior to the dosing. The mice were sacrificed at specified time points (either 2 h or 0.25, 0.5, 1, 2, 4, 6, and 8 h) post drug administration. For the collection of plasma and brain tissue, animals were euthanized with CO2, and blood samples were collected in heparinized microtubes by cardiac puncture. Brains were dissected and immediately flash frozen (−80° C.) Blood samples were spun at 2000 g for 15 min, and plasma was removed and stored at −80° C. until LC-MS/MS analysis. Prior to extraction, frozen samples were thawed on ice.
Brain tissues were diluted 1:5 w/v with acetonitrile containing losartan (0.5 μm) and homogenized, followed by vortex-mixing and centrifugation at 10,000 g for 10 min at 4° C. A 50 μL aliquot of the supernatant were diluted with 50 uL of water and transferred to 250 μL polypropylene autosampler vials sealed with teflon caps. Then, 2 μL of the sample were injected into the LC/MS/MS system for analysis. Chromatographic analysis was performed using an Accela ultra-high-performance system consisting of an analytical pump and an autosampler coupled with a TSQ Vantage mass spectrometer. […] The mobile phase consisted of 0.1% formic acid in acetonitrile and 0.1% formic acid in water with gradient elution were used. […] Plasma concentrations (nmol/ml) as well as brain tissue concentrations (nmol/g) were determined and plots of mean plasma concentration versus time were constructed. Non-compartmental analysis modules in Phoenix WinNonlin version 7.0 (Certara USA, Inc., Princeton, NJ) were used to quantify exposures (AUC0-t).

A short description of data set [2]: single time-point (2 h) oral pharmacokinetic screening in mice. It is filed as in vivo, mouse. The conditions noted are these: single time point PK, oral 10 mg/kg DPTIP equivalent. As to the method:
as §1
Brain tissues were diluted 1:5 w/v with acetonitrile containing losartan (0.5 μm) and homogenized, followed by vortex-mixing and centrifugation at 10,000 g for 10 min at 4° C. […] Plasma concentrations (nmol/ml) as well as brain tissue concentrations (nmol/g) were determined and plots of mean plasma concentration versus time were constructed. Non-compartmental analysis modules in Phoenix WinNonlin version 7.0 (Certara USA, Inc., Princeton, NJ) were used to quantify exposures (AUC0-t).

A short description of data set [3]: in vivo pharmacokinetic studies in mice (Example 1). Further details: species or system mouse. The following applies: for AUC / MRT / half-life / Cmax: 10 mg/kg. As to the method:
1.2.1 In vitro metabolic stability assessment. In vitro metabolic stability assessment was performed using mouse plasma, and liver homogenates. For the liver homogenates, washed tissues were diluted 10-fold in 0.1 M potassium phosphate buffer and homogenized using a probe sonicator. To evaluate the stability of the intact prodrug over time, each of the tissue matrix were aliquoted to 1 mL and then spiked with 10 μM of corresponding prodrugs followed by incubation in an orbital shaker at 37° C. for 1 h (in triplicate). Sample from each incubation at predetermined time points (0 min, and 1 h) was quenched with three volumes of acetonitrile containing the internal standard (IS: losartan: 0.5 μm). Samples were vortex-mixed for 30 secs and centrifuged at 10,000 RPM for 10 min at 4° C. Disappearance of the intact compound was measured using liquid chromatography tandem mass spectrometry (LC-MS/MS). 1.2.2 In vivo pharmacokinetic studies in mice. Male CD-1 mice (n=3) were used to study the pharmacokinetic profiles of representive prodrug compounds. […] Blood and brain were collected after sacrificing the mice at predetermined time points. Plasma was harvested from blood by centrifugation at 3,000 RPM for 15 min and stored at −80° C. Brain tissues were harvested following blood collection and immediately snap frozen in liquid nitrogen and stored at −80° C. until LC-MS/MS analysis. […] Brain tissues were diluted 1:5 w/v with acetonitrile containing losartan (0.5 μm) and homogenized, followed by vortex-mixing and centrifugation at 10,000 RPM for 10 min at 4° C. A 50 μL aliquot of the supernatant was diluted with 50 μL of water and transferred to 250 μL polypropylene autosampler vials sealed with teflon caps. Then, 2 μL of the sample was injected into the LC-MS/MS system for analysis.

The nature of data set [4]: in vitro stability in CES1−/− mouse liver homogenates. Type of data set: in vitro ADME. The following applies: CES1−/− mouse liver homogenate, 10 μM, 37° C. As for the experimental part: (§2) All synthesized prodrugs were next screened for in vitro stability in carboxylesterase 1 knockout (CES1^−/−) mouse plasma, as well as CES1^−/− mouse brain and liver homogenates (Table 2-1). We have previously reported that CES1^−/− mouse model recapitulates human prodrug metabolism.
(§3) For the tissue homogenates, washed tissues were diluted 10-fold in 0.1 M potassium phosphate buffer and homogenized using a probe sonicator. To evaluate the stability of the intact prodrug over time, each of the crude homogenates and plasma were aliquoted to 1 mL and then spiked with a final assay concentration of 10 μM of each prodrug followed by incubation in an orbital shaker at 37° C. for 1 h (in triplicate). Sample from each incubation at predetermined time points (0 min, and 1 h) was quenched with three volumes of acetonitrile containing the internal standard (IS; losartan: 0.5 μm). Samples were vortex-mixed for 30 secs and centrifuged at 10,000×g for 10 min at 4° C. Disappearance of intact prodrugs from these samples were performed on a Dionex ultra-high-performance LC system coupled with Q Exactive Focus orbitrap mass spectrometer (Thermo Fisher Scientific Inc., Waltham MA). […] The mobile phase consisted of 0.1% formic acid in water and 0.1% formic acid in acetonitrile. Pumps were operated at a flow rate of 0.4 mL/min for 9 min using gradient elution. The mass spectrometer controlled by Xcalibur software 4.0.27.13 (Thermo Scientific) was operated with a heated electrospray ionization (HESI) ion source in positive ionization mode. Quantification of the prodrugs were performed in the full-scan mode (from m/z 50 to 1600) by comparing t=0 samples with t=60 min samples.

Data set [5] in a line: in vitro stability in CES1−/− mouse plasma. Type of data set: in vitro ADME. The conditions noted are these: 10 μM. As to the method:
All synthesized prodrugs were next screened for in vitro stability in carboxylesterase 1 knockout (CES1^−/−) mouse plasma, as well as CES1^−/− mouse brain and liver homogenates (Table 2-1). We have previously reported that CES1^−/− mouse model recapitulates human prodrug metabolism. Tenora et al., 2019.
Zimmermann et al., 2018. For the tissue homogenates, washed tissues were diluted 10-fold in 0.1 M potassium phosphate buffer and homogenized using a probe sonicator. To evaluate the stability of the intact prodrug over time, each of the crude homogenates and plasma were aliquoted to 1 mL and then spiked with a final assay concentration of 10 μM of each prodrug followed by incubation in an orbital shaker at 37° C. for 1 h (in triplicate). Sample from each incubation at predetermined time points (0 min, and 1 h) was quenched with three volumes of acetonitrile containing the internal standard (IS; losartan: 0.5 μm). Samples were vortex-mixed for 30 secs and centrifuged at 10,000×g for 10 min at 4° C. Disappearance of intact prodrugs from these samples were performed on a Dionex ultra-high-performance LC system coupled with Q Exactive Focus orbitrap mass spectrometer (Thermo Fisher Scientific Inc., Waltham MA). The separation of analytes was achieved using the Agilent Eclipse Plus column (100×2.1 mm i.d.; maintained at 35° C.) packed with a 1.8 μm C18 stationary phase. The mobile phase consisted of 0.1% formic acid in water and 0.1% formic acid in acetonitrile. Pumps were operated at a flow rate of 0.4 mL/min for 9 min using gradient elution. The mass spectrometer controlled by Xcalibur software 4.0.27.13 (Thermo Scientific) was operated with a heated electrospray ionization (HESI) ion source in positive ionization mode. Quantification of the prodrugs were performed in the full-scan mode (from m/z 50 to 1600) by comparing t=0 samples with t=60 min samples.

Data set [6] is described as follows: in vitro metabolic stability in mouse plasma (Example 1). Type of data set: in vitro ADME. The following applies: 10 μM, 37° C. As to the method:
1.2.1 In vitro metabolic stability assessment. In vitro metabolic stability assessment was performed using mouse plasma, and liver homogenates. For the liver homogenates, washed tissues were diluted 10-fold in 0.1 M potassium phosphate buffer and homogenized using a probe sonicator. To evaluate the stability of the intact prodrug over time, each of the tissue matrix were aliquoted to 1 mL and then spiked with 10 μM of corresponding prodrugs followed by incubation in an orbital shaker at 37° C. for 1 h (in triplicate). Sample from each incubation at predetermined time points (0 min, and 1 h) was quenched with three volumes of acetonitrile containing the internal standard (IS: losartan: 0.5 μm). Samples were vortex-mixed for 30 secs and centrifuged at 10,000 RPM for 10 min at 4° C. Disappearance of the intact compound was measured using liquid chromatography tandem mass spectrometry (LC-MS/MS). 1.2.2 In vivo pharmacokinetic studies in mice. Male CD-1 mice (n=3) were used to study the pharmacokinetic profiles of representive prodrug compounds. […] Blood and brain were collected after sacrificing the mice at predetermined time points. Plasma was harvested from blood by centrifugation at 3,000 RPM for 15 min and stored at −80° C. Brain tissues were harvested following blood collection and immediately snap frozen in liquid nitrogen and stored at −80° C. until LC-MS/MS analysis. […]

Data set [7] is described as follows: in vitro stability in CES1−/− mouse brain homogenates. The following applies: CES1−/− mouse brain homogenate, 10 μM, 37° C. It is filed as in vitro ADME. As for the experimental part: as §2, §3
For data set [8], the system named is EV release. The following applies: previously reported; in vitro (b234 also in vivo when delivered systemically); cited from earlier work.
The conditions of data set [9]: previously reported pharmacokinetics; cited from earlier work.
The nature of data set [10]: dog plasma pharmacokinetics. It is filed as in vivo. The following applies: IV 2 mg/kg.
[11] abbreviates: male, CD-1, mouse, in vivo, po, intact prodrug, brain, mice, 10 mg/kg eqv.
Where [12] appears, read: male, CD-1, mouse, in vivo, po, intact prodrug, plasma, mice, 10 mg/kg eqv.

`COc1cc(-c2nc(-c3ccccc3)c(-c3cccs3)[nH]2)cc(OC)c1OC(=O)N1CCC(N2CCCCC2)CC1` [Compound P1, 2,6-Dimethoxy-4-(4-phenyl-5-(thiophen-2-yl)-1H-imidazol-2-yl)phenyl[1,4′-bipiperidine]-1′-carboxylate]: the “plasma exposure of the intact compound (AUC0-t)” value in [1] (oral 10 mg/kg DPTIP equivalent) was 0.8299 µM·h. The “conversion of prodrug to DPTIP in vivo” value in [1] (oral 10 mg/kg DPTIP equivalent (P18: in the brain)) was “about 40%”. Further, the “improvement of brain and plasma levels of DPTIP and/or its brain penetration index compared with DPTIP” value in data set [2] is recorded as “highest improvement”. Moreover, in [3] (setting [11]), the AUC – broadly, concentration integrated over time – was 0.477 µM·h; the MRT (usually a mean duration of stay, worked out from the concentration-time curve) is 2.12 h; the half-life (in general, the time needed for the level to fall by half in the phase considered) was 4.37 h. The Cmax (in general, the peak of the concentration-time curve) in data set [3] (male, CD-1, mouse, in vivo, po, intact prodrug, brain, mice, 10 mg/kg eqv, read-out: Cmax) amounted to 106 ± 11.6 nM. Moreover, in data set [3] (setting [12]), the exposure (AUC) was 0.805 µM·h, the MRT stood at 3.39 h, the half-life was 2.45 h and the Tmax (commonly the time from dosing to the highest level) turned out to be 1 h. Also, in data set [3] (male, CD-1, mouse, in vivo, po, intact prodrug, plasma, mice, 10 mg/kg eqv, read-out: Cmax), the Cmax stood at 546 ± 25.8 nM. The Kp in data set [3] (male, CD-1, mouse, in vivo, intact prodrug, mice, 10 mg/kg eqv, read-out: Brain:Plasma ratio) came to 0.6. The “Stability in mouse (% remaining at 1h) Mean + Std Error, Liver” value in data set [4] was 85 ± 3%. Moreover, in data set [5] (CES1−/− mouse plasma, 37° C.), the “Stability in mouse (% remaining at 1h) Mean + Std Error, Plasma” value came to 90 ± 2%.
Consider `COc1cc(-c2nc(-c3ccccc3)c(-c3cccs3)[nH]2)cc(OC)c1OC(=O)C1=CN(C)C=CC1` [Compound P17, 2,6-Dimethoxy-4-(4-phenyl-5-(thiophen-2-yl)-1H-imidazol-2-yl)phenyl 1-methyl-1,4-dihydropyridine-3-carboxylate], for which the “intact prodrug remaining after 1 hour of incubation” value in data set [6] was “approximately 50%”. For the same molecule, the “Stability in mouse (% remaining at 1h) Mean + Std Error, Liver” value in [4] turned out to be 22 ± 1%. Moreover, the “Stability in mouse (% remaining at 1h) Mean + Std Error, Plasma” value in data set [5] (CES1−/− mouse plasma, 37° C.) worked out at 52 ± 2%.
In the case of `COc1cc(-c2nc(-c3cccs3)c(-c3ccccc3)[nH]2)cc(OC)c1O` [DPTIP, 2,6-dimethoxy-4-(5-phenyl-4-(thiophen-2-yl)-1H-imidazol-2-yl) phenol, reference compound], in data set [7], the “Stability in mouse (% remaining at 1h) Mean + Std Error, Brain” value came to 89 ± 4%. The molecule further had a Cmax in [3] (male, CD-1, mouse, plasma, po) of 400 nM. For the same molecule, the “brain levels of DPTIP” value in data set [3] (mice, oral 10 mg/kg DPTIP equivalent) is recorded as 50 nM. Moreover, the “inhibition of EV release” value in data set [8] was “dose-dependently inhibiting EV release in vitro and in vivo”. The “Stability in mouse (% remaining at 1h) Mean + Std Error, Liver” value in [4] was 98 ± 6%. The “t1/2 (rapid clearance) of DPTIP” value in data set [9] is given as under 0.5 h. Besides, the “Stability in mouse (% remaining at 1h) Mean + Std Error, Plasma” value in data set [5] (CES1−/− (carboxylesterase 1 knockout), mouse, plasma) is on record as 103 ± 2%. In addition, in data set [10], the AUC was 7.47 µM·h and the Cmax came to 5500 nM.
